Experimental data as given in article PMC7483518, “Destabilizing single chain major histocompatibility complex class I protein for repurposed enterokinase proteolysis” (Scientific Reports, 2020).
Like-named read-outs stand apart in the source and are kept apart here.

What was measured:
[1] = system: HLA-A*11:01 single chain protein; format: biochemical, Human; design: EZ50kDa / EZ50kD (pH 6.2) / EZ50kD (pH 8) / EZ50kD (normalised: EBV1101 = 1, EBV0201 = 0) / EZ50kDa rank: unit not given beside the values;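 for EZ50kD (pH 6.2): scaled with positive control peptide as 1 and negative control peptide as 0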
[2] = molecular target: photolabile unchained HLA-A*11:01 pMHC-I protein (Homo sapiens, UniProt P04439, A114D/D185E/E176A/F33Y/L180Q/S129P/T187R); test: ELISA with photolabile unchained pMHC-I protein and UV irradiation; format: binding
[3] = EASY MHC-I A*11:01, run 2019-08-06, 5min, mean of 2 replicates
[4] = EASY MHC-I A*11:01, 2019-07-26, mean of the 2 replicates
[5] = EASY MHC-I A*11:01, run 2019-08-07, 5min, mean of 2 replicates
[6] = Table 2, pH 6.2, 37 °C, enterokinase, Eq. (4), instability cutoff < 0.3
[7] = Table 2, 62.5 nM photolabile pMHC-I mixture, 5 μM peptide in PBS, UV 365 nm 2 × 5 min on ice, 2 h room temperature on anti-β2m plate, Abs450nm − Abs570nm, instability cutoff < 0.6
[8] = EASY MHC-I A*11:01, 2019-07-25, mean of the 2 replicates
[9] = EASY MHC-I A*11:01, run 2019-08-08, 5min, mean of 2 replicates

LIMQLMPFGCLL [TM1048]
EZ_mean [1]: -0.1103
EASY_mean [2]: -0.04956

CLTSTVQLIMQL [TM1040]
EZ_mean [1]: -0.1197
EASY_mean ([2]; ELISA signal, mean, […]): -0.0545

MQLMPFGC [TM1008]
EZ_mean [1, 3]: -0.09972
EASY_mean ([2]; ELISA signal, mean, […]): -0.0333

STVQLIMQ [TM1002]
EZ_mean [1, 3]: -0.09047
EASY_mean ([2]; […], mean, STDEV): -0.02917

TSPKANKEIL [EX1015]
EZ_mean [1, 4]: -0.1061
EASY_mean ([2]; […], mean, STDEV): -0.004833

QLIMQLMPF [TM1014]
EZ_mean [1, 5]: -0.09931
EASY_mean ([2]; […], mean, STDEV): -0.03038

TVQLIMQLMPFG [TM1044]
EZ_mean [1]: -0.09806
EASY_mean ([2]; ELISA signal, mean, […]): -0.03569

TVQLIMQLM [TM1012]
EZ_mean [1, 5]: -0.1032
EASY_mean ([2]; […], mean, STDEV): -0.03295

RSFKDLLKK [reference compound]
EZ50kD (pH 6.2) ([1]; pH 6.2): 0.6092
ELISA450nm [2]: 1.682

QLIMQLMPFGCL [TM1047]
EZ_mean [1]: -0.1111
EASY_mean [2]: -0.05287

DFGRAKLLGA [LR1024]
EZ_mean [1]: -0.06389
EASY_mean ([2]; ELISA signal, mean, […]): -0.02296

TSTVQLIMQ [TM1010]
EZ_mean [1, 5]: -0.07795
EASY_mean ([2]; […], mean, STDEV): -0.01875

ITQLMPFGSL [CS1019]
EZ_mean [1]: -0.0702
EASY_mean [2]: -0.007918

MPLGSLLDYVR [CS1034]
EZ_mean [1]: -0.06141
EASY_mean [2]: -0.006346

PFGSLLDY [CS1005]
EZ_mean [1]: -0.07269
EASY_mean [2]: -0.004417

RAKLLGAEEKE [LR1038]
EZ_mean [1]: -0.07295
EASY_mean [2]: -0.00823

MQLMPFGCLLD [TM1038]
EZ_mean [1]: -0.125
EASY_mean ([2]; ELISA signal, mean, […]): -0.0584

SSCSSCPLSK [reference compound]
EZ50kD (pH 6.2) [1, 6]: 0.6649
EZ50kD (pH 6.2) ([1]; pH 6.2): 0.9576
EZ50kD (pH 8) ([1]; pH 8): 0.8409
ELISA450nm [2, 7]: 1.272

AIKTSPKAN [EX1006]
EZ_mean [1, 8]: -0.02264
EASY_mean ([2]; […], mean, STDEV): 0.003202

AIKTSPKA [EX1001]
EZ_mean [1]: -0.04572
EASY_mean [2]: -0.01453

KTSPKANKEILD [EX1029]
EZ_mean ([1]; EASY MHC-I A*11:01, 2019-08-01, mean of the 2 replicates): -0.1385
EASY_mean [2]: -0.02661

IMQLMPFGCL [TM1026]
EZ_mean [1, 9]: -0.06176
Norm_mean [1, 9]: -0.05556
EASY_mean ([2]; ELISA signal, mean, […]): -0.02435

KITDFGRAKL [LR1021]
EZ_mean [1]: -0.05252
EASY_mean ([2]; […], mean, STDEV): -0.0154

RAKLLGAE [LR1008]
EZ_mean [1]: -0.05335
EASY_mean ([2]; […], mean, STDEV): -0.01564

TVQLIMQLMPF [TM1033]
EZ_mean [1]: -0.1125
EASY_mean ([2]; […], mean, STDEV): -0.06339

VAIKTSPKA [EX1005]
EZ_mean [1, 8]: -0.02025
EASY_mean ([2]; […], mean, STDEV): 0.004482

IPVAIKTSPKA [EX1016]
EZ_mean [1, 4]: -0.1024
EASY_mean ([2]; […], mean, STDEV): -0.002293

MPFGSLLDYV [CS1023]
EZ_mean [1]: -0.04531
EASY_mean [2]: 0.02198

RAKLLGAEEKEY [LR1050]
EZ_mean [1]: 0.007797
EASY_mean [2]: 0.01434

MQLMPFGCL [TM1017]
EZ_mean [1, 5]: -0.1037
EASY_mean ([2]; […], mean, STDEV): -0.03322

CLTSTVQLIMQ [TM1029]
EZ_mean [1]: -0.1239
EASY_mean ([2]; ELISA signal, mean, […]): -0.0718

KITDFGRA [LR1002]
EZ_mean [1]: -0.03733
EASY_mean ([2]; […], mean, STDEV): -0.007222

NTLEQTVKK [reference compound]
EZ50kD (pH 6.2) [1, 6]: 0.5647
ELISA450nm [2, 7]: 1.631

TQLMPFGSLLDY [CS1043]
EZ_mean [1]: -0.01577
EASY_mean [2]: 0.01363

IMQLMPFGC [TM1016]
EZ_mean [1, 5]: -0.08902
EASY_mean ([2]; […], mean, STDEV): -0.02516

TMVMELIRMIK [reference compound]
ELISA450nm [2, 7]: 0.748

TVIRRRGR [reference compound]
ELISA450nm [2, 7]: 0.1482

GSLLDYVREHKD [CS1049]
EASY_mean [2]: -0.02126

STLPETTVIR [putative peptide, HBV, no IEDB entry]
ELISA450nm [2, 7]: 1.302

RTQSPRRR [reference compound]
ELISA450nm [2, 7]: 0.3319

RTLSPRRR [putative peptide, Streptomyces sp, no IEDB entry]
ELISA450nm [2, 7]: 0.1209

NILNPFLPLL [putative peptide, HBV, no IEDB entry]
ELISA450nm [2, 7]: 0.2827
